Assay results reported in PubChem BioAssay (NCI).
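How tested: cells in 96-well plates exposed to compound for 48 hours at five concentrations. GI50: concentration for 50% inhibition of growth. TGI denotes the concentration required for complete inhibition of growth.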

Tests used:
Assay in all cases: growth of human tumour cells (NCI), 48 h
SR leukemia = test system: SR leukemia
SF-268 CNS = test system: SF-268 CNS
A498 renal = test system: A498 renal
KM12 colon = test system: KM12 colon
ACHN renal = test system: ACHN renal
A549 NSCLC = test system: A549 NSCLC
BT-549 breast = test system: BT-549 breast
LOX IMVI melanoma = test system: LOX IMVI melanoma
786-0 renal = test system: 786-0 renal
DU-145 prostate = test system: DU-145 prostate

Q: Which GI50 (SR leukemia) does the source give for `Cc1cc(N2CCOCC2)nc(N[C@@H]2CCC[C@H](Nc3ccnc4cc(Cl)ccc34)C2)n1` here?
A: 1.05 µM

Q: What about the TGI (SR leukemia) of the same compound?
A: 3.83 µM

Q: And the GI50 (SF-268 CNS)?
A: 1.59 µM

Q: And the TGI (SF-268 CNS)?
A: 4.44 µM

Q: What about the GI50 (A498 renal) of the same compound?
A: 1.57 µM

Q: What about the TGI (A498 renal) of the same compound?
A: 4.4 µM

Q: And the GI50 (KM12 colon)?
A: 3.06 µM

Q: What about the TGI (KM12 colon) of the same compound?
A: 10.8 µM

Q: What about the GI50 (ACHN renal) of the same compound?
A: 1.89 µM

Q: And the TGI (ACHN renal)?
A: 3.91 µM

Q: And the GI50 (A549 NSCLC)?
A: 3.31 µM

Q: What about the TGI (A549 NSCLC) of the same compound?
A: 8.56 µM

Q: What about the GI50 (BT-549 breast) of the same compound?
A: 2.34 µM

Q: And the TGI (BT-549 breast)?
A: 5.01 µM

Q: What about the GI50 (LOX IMVI melanoma) of the same compound?
A: 1.71 µM

Q: And the TGI (LOX IMVI melanoma)?
A: 3.3 µM

Q: And the GI50 (786-0 renal)?
A: 1.73 µM

Q: What about the TGI (786-0 renal) of the same compound?
A: 3.27 µM

Q: What about the GI50 (DU-145 prostate) of the same compound?
A: 3.82 µM

Q: What about the TGI (DU-145 prostate) of the same compound?
A: 14.7 µM

Q: What does the source list for `CC1=C(c2ccccc2)NC(=S)C(C)C(c2ccccc2)=N1` (centres undefined)?
A: TGI (SR leukemia): > 100 µM; TGI (SF-268 CNS): > 100 µM; TGI (A498 renal): > 100 µM; TGI (KM12 colon): > 100 µM; TGI (ACHN renal): > 100 µM; TGI (A549 NSCLC): > 100 µM; TGI (BT-549 breast): > 100 µM; TGI (LOX IMVI melanoma): > 100 µM; TGI (786-0 renal): > 100 µM; TGI (DU-145 prostate): > 100 µM

Q: With `CN(Cc1ccccc1)c1ccc(CO)c(Cl)c1` as the compound, how does the GI50 (SR leukemia) read?
A: 19 µM

Q: What about the TGI (SR leukemia) of the same compound?
A: > 86.6 µM

Q: What about the GI50 (SF-268 CNS) of the same compound?
A: 47.2 µM

Q: What about the TGI (SF-268 CNS) of the same compound?
A: > 100 µM

Q: What about the GI50 (A498 renal) of the same compound?
A: 0.0652 µM

Q: And the TGI (A498 renal)?
A: 0.212 µM

Q: What about the GI50 (KM12 colon) of the same compound?
A: 22.6 µM

Q: What about the TGI (KM12 colon) of the same compound?
A: > 86.5 µM

Q: What about the GI50 (ACHN renal) of the same compound?
A: 57.2 µM

Q: And the TGI (ACHN renal)?
A: > 100 µM

Q: And the GI50 (A549 NSCLC)?
A: 4.74 µM

Q: And the TGI (A549 NSCLC)?
A: 32.5 µM

Q: And the GI50 (BT-549 breast)?
A: 21.1 µM

Q: And the TGI (BT-549 breast)?
A: > 100 µM

Q: What about the GI50 (LOX IMVI melanoma) of the same compound?
A: 45.8 µM

Q: What about the TGI (LOX IMVI melanoma) of the same compound?
A: > 100 µM

Q: What about the GI50 (786-0 renal) of the same compound?
A: 15.7 µM

Q: And the TGI (786-0 renal)?
A: > 100 µM

Q: What about the GI50 (DU-145 prostate) of the same compound?
A: 27.8 µM

Q: And the TGI (DU-145 prostate)?
A: > 100 µM

Q: Which results are given for `O=C(c1ccccc1)C(CN1CCCCC1)c1ccccc1` (centres undefined)?
A: GI50 (SR leukemia): 0.539 µM; TGI (SR leukemia): 4.26 µM; GI50 (SF-268 CNS): 3.98 µM; TGI (SF-268 CNS): 16.1 µM; GI50 (A498 renal): 9.33 µM; TGI (A498 renal): 22 µM; GI50 (KM12 colon): 3.75 µM; TGI (KM12 colon): 13.8 µM; GI50 (ACHN renal): 0.941 µM; TGI (ACHN renal): 2.13 µM; GI50 (A549 NSCLC): 16.1 µM; TGI (A549 NSCLC): 43.8 µM; GI50 (BT-549 breast): 1.6 µM; TGI (BT-549 breast): 3.19 µM; GI50 (LOX IMVI melanoma): 0.478 µM; TGI (LOX IMVI melanoma): 1.7 µM; GI50 (786-0 renal): 1.91 µM; TGI (786-0 renal): 3.45 µM; GI50 (DU-145 prostate): 0.681 µM; TGI (DU-145 prostate): 2.05 µM

Q: Which GI50 (SR leukemia) does the source give for `CCC(=C/[C@H](C)C/C=C/C(C)=C/[C@@H](C)C(=O)[C@@H](C)[C@H](O)[C@@H](C)CC)/C=C/[C@@H]1OC(=O)C=C[C@H]1C` here?
A: < 0.01 µM

Q: And the TGI (SR leukemia)?
A: 0.115 µM

Q: And the GI50 (SF-268 CNS)?
A: < 0.01 µM

Q: What about the GI50 (A498 renal) of the same compound?
A: < 0.01 µM

Q: And the TGI (A498 renal)?
A: < 0.01 µM

Q: And the GI50 (KM12 colon)?
A: < 0.01 µM

Q: What about the TGI (KM12 colon) of the same compound?
A: 0.126 µM

Q: And the GI50 (ACHN renal)?
A: < 0.01 µM

Q: What about the TGI (ACHN renal) of the same compound?
A: 1.11 µM

Q: And the GI50 (A549 NSCLC)?
A: < 0.01 µM

Q: And the TGI (A549 NSCLC)?
A: 1.86 µM

Q: What about the GI50 (BT-549 breast) of the same compound?
A: < 0.01 µM

Q: And the TGI (BT-549 breast)?
A: 1.75 µM

Q: What about the GI50 (LOX IMVI melanoma) of the same compound?
A: < 0.01 µM

Q: What about the TGI (LOX IMVI melanoma) of the same compound?
A: < 0.01 µM

Q: What about the GI50 (786-0 renal) of the same compound?
A: < 0.01 µM

Q: What about the TGI (786-0 renal) of the same compound?
A: < 0.01 µM

Q: What about the GI50 (DU-145 prostate) of the same compound?
A: < 0.01 µM

Q: What about the TGI (DU-145 prostate) of the same compound?
A: 4.42 µM

Q: How did the GI50 (SR leukemia) turn out when `O=Nc1ccc(NO)c2ccccc12` was run?
A: 16.3 µM

Q: What about the TGI (SR leukemia) of the same compound?
A: 62 µM

Q: What about the GI50 (SF-268 CNS) of the same compound?
A: 13.8 µM

Q: What about the TGI (SF-268 CNS) of the same compound?
A: 27.8 µM

Q: And the GI50 (A498 renal)?
A: 18.9 µM

Q: What about the TGI (A498 renal) of the same compound?
A: 36 µM

Q: What about the GI50 (KM12 colon) of the same compound?
A: 15.6 µM

Q: What about the TGI (KM12 colon) of the same compound?
A: 30.4 µM

Q: And the GI50 (ACHN renal)?
A: 12.6 µM

Q: And the TGI (ACHN renal)?
A: 25.9 µM

Q: And the GI50 (A549 NSCLC)?
A: 18.3 µM

Q: And the TGI (A549 NSCLC)?
A: 38.7 µM

Q: What about the GI50 (BT-549 breast) of the same compound?
A: 15.7 µM

Q: What about the TGI (BT-549 breast) of the same compound?
A: 29.4 µM

Q: What about the GI50 (LOX IMVI melanoma) of the same compound?
A: 2.78 µM

Q: What about the TGI (LOX IMVI melanoma) of the same compound?
A: 12.1 µM

Q: What about the GI50 (786-0 renal) of the same compound?
A: 18.6 µM

Q: What about the TGI (786-0 renal) of the same compound?
A: 33.1 µM

Q: And the GI50 (DU-145 prostate)?
A: 17.4 µM

Q: And the TGI (DU-145 prostate)?
A: 31.5 µM

Q: What does the source list for `Oc1ccc(C(c2ccc(O)cc2)c2ccc(O)cc2)cc1`?
A: TGI (SR leukemia): 75.3 µM; TGI (SF-268 CNS): > 100 µM; TGI (A498 renal): 34.5 µM; TGI (KM12 colon): 32.4 µM; TGI (ACHN renal): 90.8 µM; TGI (A549 NSCLC): > 100 µM; TGI (BT-549 breast): 54.2 µM; TGI (LOX IMVI melanoma): 38.4 µM; TGI (786-0 renal): 34.8 µM; TGI (DU-145 prostate): 81.6 µM

Q: With `C#CCSc1cc(Cl)c(C)cc1S(=O)(=O)Nc1nc2ccccc2o1` as the compound, how does the GI50 (SR leukemia) read?
A: 35.6 µM

Q: What about the TGI (SR leukemia) of the same compound?
A: > 100 µM

Q: And the GI50 (SF-268 CNS)?
A: 59.8 µM

Q: And the TGI (SF-268 CNS)?
A: > 100 µM

Q: What about the GI50 (A498 renal) of the same compound?
A: 33.4 µM

Q: What about the TGI (A498 renal) of the same compound?
A: 87.1 µM

Q: And the GI50 (KM12 colon)?
A: 27.4 µM

Q: What about the TGI (KM12 colon) of the same compound?
A: 75.4 µM

Q: What about the GI50 (ACHN renal) of the same compound?
A: 35.2 µM

Q: And the TGI (ACHN renal)?
A: > 100 µM

Q: What about the GI50 (A549 NSCLC) of the same compound?
A: 31.8 µM

Q: What about the TGI (A549 NSCLC) of the same compound?
A: > 100 µM

Q: And the GI50 (BT-549 breast)?
A: 27.8 µM

Q: And the TGI (BT-549 breast)?
A: 65.5 µM

Q: And the GI50 (LOX IMVI melanoma)?
A: 36 µM

Q: What about the TGI (LOX IMVI melanoma) of the same compound?
A: > 100 µM

Q: And the GI50 (786-0 renal)?
A: 31.9 µM

Q: What about the TGI (786-0 renal) of the same compound?
A: 91.4 µM

Q: What about the GI50 (DU-145 prostate) of the same compound?
A: 37.9 µM

Q: And the TGI (DU-145 prostate)?
A: > 100 µM
